Laboratory results as given in PubChem BioAssay (NCI).
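The compound was tested at five concentrations on cells cultured in 96-well plates, with a 48-hour exposure period. TGI: total growth inhibition.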

Key:
Experiment in all cases: growth of human tumour cells (NCI), 48 h
XF 498 CNS = test system: XF 498 CNS
K-562 leukemia = test system: K-562 leukemia
NCI-H23 lung = test system: NCI-H23 lung
COLO 205 colon = test system: COLO 205 colon
OVCAR-4 ovarian = test system: OVCAR-4 ovarian
HT29 colon = test system: HT29 colon
DLD-1 colon = test system: DLD-1 colon
KM20L2 colon = test system: KM20L2 colon
HL-60(TB) leukemia = test system: HL-60(TB) leukemia
ACHN renal = test system: ACHN renal
U251 CNS = test system: U251 CNS
DMS 114 small cell lung = test system: DMS 114 small cell lung
SF-295 CNS = test system: SF-295 CNS
UO-31 renal = test system: UO-31 renal
A498 renal = test system: A498 renal
LXFL 529 NSCLC = test system: LXFL 529 NSCLC
HCT-15 colon = test system: HCT-15 colon
UACC-62 melanoma = test system: UACC-62 melanoma
SK-MEL-5 melanoma = test system: SK-MEL-5 melanoma
MOLT-4 leukemia = test system: MOLT-4 leukemia
CCRF-CEM leukemia = test system: CCRF-CEM leukemia
SW-620 colon = test system: SW-620 colon
LOX IMVI melanoma = test system: LOX IMVI melanoma
NCI-H226 lung = test system: NCI-H226 lung
NCI-H522 lung = test system: NCI-H522 lung
TK-10 renal = test system: TK-10 renal
RXF 393 renal = test system: RXF 393 renal
OVCAR-8 ovarian = test system: OVCAR-8 ovarian
CAKI-1 renal = test system: CAKI-1 renal
EKVX NSCLC = test system: EKVX NSCLC
HOP-92 NSCLC = test system: HOP-92 NSCLC
MALME-3M melanoma = test system: MALME-3M melanoma
SNB-78 CNS = test system: SNB-78 CNS
SK-OV-3 ovarian = test system: SK-OV-3 ovarian
786-0 renal = test system: 786-0 renal
OVCAR-5 ovarian = test system: OVCAR-5 ovarian
SF-539 CNS = test system: SF-539 CNS
M19-MEL melanoma = test system: M19-MEL melanoma
NCI-H460 lung = test system: NCI-H460 lung
SF-268 CNS = test system: SF-268 CNS
RPMI-8226 leukemia = test system: RPMI-8226 leukemia
KM12 colon = test system: KM12 colon
A549 NSCLC = test system: A549 NSCLC
SK-MEL-28 melanoma = test system: SK-MEL-28 melanoma
SN12C renal = test system: SN12C renal
UACC-257 melanoma = test system: UACC-257 melanoma
M14 melanoma = test system: M14 melanoma
SNB-75 CNS = test system: SNB-75 CNS
IGROV1 ovarian = test system: IGROV1 ovarian
HCC-2998 colon = test system: HCC-2998 colon
OVCAR-3 ovarian = test system: OVCAR-3 ovarian
SK-MEL-2 melanoma = test system: SK-MEL-2 melanoma
HOP-62 NSCLC = test system: HOP-62 NSCLC
SR leukemia = test system: SR leukemia
SNB-19 CNS = test system: SNB-19 CNS
DMS 273 small cell lung = test system: DMS 273 small cell lung
HCT-116 colon = test system: HCT-116 colon

With `O=C1CCC2(c3ccc(Cl)cc3)Nc3ncccc3N12` (stereo unspecified) the TGI (XF 498 CNS) was greater than 100 µM, the TGI (K-562 leukemia) was greater than 100 µM and the TGI (NCI-H23 lung) was greater than 100 µM. It also gave a TGI (COLO 205 colon) greater than 100 µM, a TGI (OVCAR-4 ovarian) greater than 100 µM and a TGI (HT29 colon) greater than 100 µM. For the same compound, the TGI (DLD-1 colon) was greater than 100 µM, the TGI (KM20L2 colon) was greater than 100 µM and the TGI (HL-60(TB) leukemia) was greater than 100 µM. The TGI (ACHN renal) was greater than 100 µM, the TGI (U251 CNS) was greater than 100 µM and the TGI (DMS 114 small cell lung) was greater than 100 µM. It also gave a TGI (SF-295 CNS) greater than 100 µM, a TGI (UO-31 renal) greater than 100 µM and a TGI (A498 renal) greater than 100 µM. It also gave a TGI (LXFL 529 NSCLC) greater than 100 µM, a TGI (HCT-15 colon) greater than 100 µM and a TGI (UACC-62 melanoma) greater than 100 µM. It also gave a TGI (SK-MEL-5 melanoma) greater than 100 µM, a TGI (MOLT-4 leukemia) greater than 100 µM and a TGI (CCRF-CEM leukemia) greater than 100 µM. It also gave a TGI (SW-620 colon) greater than 100 µM, a TGI (LOX IMVI melanoma) greater than 100 µM and a TGI (NCI-H226 lung) greater than 100 µM. It also gave a TGI (NCI-H522 lung) greater than 100 µM, a TGI (TK-10 renal) greater than 100 µM and a TGI (RXF 393 renal) greater than 100 µM. The TGI (OVCAR-8 ovarian) was greater than 100 µM, the TGI (CAKI-1 renal) was greater than 100 µM and the TGI (EKVX NSCLC) was greater than 100 µM. The TGI (HOP-92 NSCLC) was greater than 100 µM, the TGI (MALME-3M melanoma) was greater than 100 µM and the TGI (SNB-78 CNS) was greater than 100 µM. The TGI (SK-OV-3 ovarian) was greater than 100 µM, the TGI (786-0 renal) was greater than 100 µM and the TGI (OVCAR-5 ovarian) was greater than 100 µM. The TGI (SF-539 CNS) was greater than 100 µM, the TGI (M19-MEL melanoma) was greater than 100 µM and the TGI (NCI-H460 lung) was greater than 100 µM. For the same compound, the TGI (SF-268 CNS) was greater than 100 µM, the TGI (RPMI-8226 leukemia) was greater than 100 µM and the TGI (KM12 colon) was greater than 100 µM. It also gave a TGI (A549 NSCLC) greater than 100 µM, a TGI (SK-MEL-28 melanoma) greater than 100 µM and a TGI (SN12C renal) greater than 100 µM. The TGI (UACC-257 melanoma) was greater than 100 µM, the TGI (M14 melanoma) was greater than 100 µM and the TGI (SNB-75 CNS) was greater than 100 µM. For the same compound, the TGI (IGROV1 ovarian) was greater than 100 µM, the TGI (HCC-2998 colon) was greater than 100 µM and the TGI (OVCAR-3 ovarian) was greater than 100 µM. It also gave a TGI (SK-MEL-2 melanoma) greater than 100 µM and a TGI (HOP-62 NSCLC) greater than 100 µM.

Compound `CCC12CCCN(Cc3ccccc3)C1c1c(n(C)c3ccccc13)CC2` (stereo unspecified) has a TGI (K-562 leukemia) greater than 253 µM, a TGI (NCI-H23 lung) greater than 253 µM and a TGI (COLO 205 colon) greater than 253 µM. The TGI (HT29 colon) was greater than 253 µM, the TGI (DLD-1 colon) was greater than 253 µM and the TGI (KM20L2 colon) was greater than 253 µM. The TGI (HL-60(TB) leukemia) was greater than 253 µM, the TGI (ACHN renal) was greater than 253 µM and the TGI (U251 CNS) was greater than 253 µM. For the same compound, the TGI (SR leukemia) was greater than 253 µM, the TGI (SF-295 CNS) was greater than 253 µM and the TGI (LXFL 529 NSCLC) was greater than 253 µM. For the same compound, the TGI (HCT-15 colon) was greater than 253 µM, the TGI (UACC-62 melanoma) was greater than 253 µM and the TGI (SK-MEL-5 melanoma) was 184 µM. It also gave a TGI (MOLT-4 leukemia) greater than 253 µM, a TGI (CCRF-CEM leukemia) greater than 253 µM and a TGI (SW-620 colon) greater than 253 µM. It also gave a TGI (LOX IMVI melanoma) greater than 253 µM, a TGI (NCI-H226 lung) greater than 253 µM and a TGI (NCI-H522 lung) of 220 µM. For the same compound, the TGI (TK-10 renal) was greater than 253 µM, the TGI (RXF 393 renal) was greater than 253 µM and the TGI (OVCAR-8 ovarian) was greater than 253 µM. It also gave a TGI (CAKI-1 renal) greater than 253 µM, a TGI (EKVX NSCLC) greater than 253 µM and a TGI (SNB-19 CNS) greater than 253 µM. It also gave a TGI (HOP-92 NSCLC) greater than 253 µM, a TGI (MALME-3M melanoma) greater than 253 µM and a TGI (SK-OV-3 ovarian) greater than 253 µM. For the same compound, the TGI (786-0 renal) was greater than 253 µM, the TGI (SF-539 CNS) was greater than 253 µM and the TGI (M19-MEL melanoma) was greater than 253 µM. For the same compound, the TGI (NCI-H460 lung) was greater than 253 µM, the TGI (SF-268 CNS) was greater than 253 µM and the TGI (RPMI-8226 leukemia) was greater than 253 µM. The TGI (DMS 273 small cell lung) was greater than 253 µM, the TGI (KM12 colon) was greater than 253 µM and the TGI (A549 NSCLC) was greater than 25.3 µM. The TGI (SK-MEL-28 melanoma) was greater than 253 µM, the TGI (SN12C renal) was greater than 253 µM and the TGI (UACC-257 melanoma) was greater than 253 µM. The TGI (IGROV1 ovarian) was greater than 253 µM, the TGI (HCT-116 colon) was greater than 253 µM and the TGI (HCC-2998 colon) was greater than 253 µM. It also gave a TGI (OVCAR-3 ovarian) of 215 µM, a TGI (SK-MEL-2 melanoma) greater than 253 µM and a TGI (HOP-62 NSCLC) greater than 253 µM.
